Test [1] concerns the target T1, Methionyl-tRNA synthetase, putative (Trypanosoma brucei brucei, UniProt Q38C91).
T1 sequence (Q38C91 whole entry): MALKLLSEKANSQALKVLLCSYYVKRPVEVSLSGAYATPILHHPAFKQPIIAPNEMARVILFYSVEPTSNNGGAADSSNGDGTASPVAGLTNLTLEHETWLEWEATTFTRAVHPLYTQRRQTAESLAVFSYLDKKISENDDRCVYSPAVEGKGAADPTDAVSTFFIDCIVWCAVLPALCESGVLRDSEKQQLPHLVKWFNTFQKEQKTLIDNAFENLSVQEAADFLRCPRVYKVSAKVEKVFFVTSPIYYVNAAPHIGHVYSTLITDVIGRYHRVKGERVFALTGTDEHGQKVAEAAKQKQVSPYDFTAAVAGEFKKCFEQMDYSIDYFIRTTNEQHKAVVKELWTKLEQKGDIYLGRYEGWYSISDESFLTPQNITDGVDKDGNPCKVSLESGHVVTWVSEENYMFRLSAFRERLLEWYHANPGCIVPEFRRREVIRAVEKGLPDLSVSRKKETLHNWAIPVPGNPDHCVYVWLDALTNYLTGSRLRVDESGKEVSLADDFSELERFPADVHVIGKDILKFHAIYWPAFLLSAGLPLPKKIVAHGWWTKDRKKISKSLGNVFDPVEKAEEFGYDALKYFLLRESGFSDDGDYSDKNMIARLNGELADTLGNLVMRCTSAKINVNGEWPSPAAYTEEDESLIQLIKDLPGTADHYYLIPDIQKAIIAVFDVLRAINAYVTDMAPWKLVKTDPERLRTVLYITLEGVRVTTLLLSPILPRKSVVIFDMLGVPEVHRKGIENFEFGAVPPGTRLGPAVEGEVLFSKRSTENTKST
Type of test: functional, Trypanosoma brucei brucei strain 927/4 GUTat10.1.

Test [2] can be described thus: Counterscreen for inhibitors of Trypanosoma brucei methionyl tRNA synthetase (MetRS): Luminescence-based cell-based high throughput dose response assay to identify compounds that are cytotoxic to Jurkat human T lymphocyte cells. Type of test: functional.
Test [3] addresses T1, Methionyl-tRNA synthetase, putative. Type of test: functional, Trypanosoma brucei brucei strain 927/4 GUTat10.1. The source holds these as a separate data set.
Test [4] is described as follows: Late stage counterscreen for inhibitors of Trypanosoma brucei methionyl tRNA synthetase (MetRS): Luminescence-based cell-based high throughput dose response assay to identify compounds that are cytotoxic to Jurkat human T lymphocyte cells. Type of test: functional.
Test [5] in a line: Plasmodium falciparum Dd2 Sybr green parasite growth Measured in Cell-Based and Microorganism Combination System Using Plate Reader - 2153-01_Inhibitor_Dose_DryPowder_Activity_Set3. Type of test: functional.
Test [6] can be described thus: P. falciparum ATP4 D1247Y mutant growth inhibitors, dose response, NITD609-resistant line, SYBR Green, dry powder (AID 1159571).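 Also: parasites synchronized at ring stage by sorbitol before testing.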 Type of test: functional, cell-based.
Test [7] in a line: P. falciparum 3D7-ScDHODH growth inhibitors, dose response, SYBR Green, dry powder samples (AID 1159570).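 Also: parasite growth measured after 72 hours of compound exposure.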 Type of test: functional, cell-based.
The nature of test [8]: HepG2 cell cytotoxicity, dose response, cytotoxicity control, plate reader, dry powder samples (AID 1159569).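 Also: inhibitor potency with signal falling toward the positive control level.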 Type of test: functional, cell-based.
Test [9] can be described thus: P. falciparum Dd2 growth inhibitors, dose response, SYBR Green, dry powder samples (AID 1159566).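 Also: potency for growth inhibition with lower SYBR green DNA signal.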 Type of test: functional, cell-based.
Test [10] is described as follows: P. falciparum Dd2 growth inhibitors, dose response, SYBR Green, dry powder samples, set 9 (AID 1159568). Type of test: functional, cell-based.
Test [11] can be described thus: P. falciparum Dd2 growth inhibitors, dose response, SYBR Green, cherry-picked samples (AID 1159567). Type of test: functional, cell-based.
Test [12] can be described thus: P. falciparum late gametocyte killing, dose response, luminescence (AID 1117278).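 Also: gametocytes exposed to compound for 24 hours.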 Type of test: functional, cell-based.
Test [13] can be described thus: Jurkat T cell cytotoxicity, dose response, cytotoxicity control for P. falciparum gametocyte viability project, luminescence (AID 1117277).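 Also: potency reflects loss of cellular ATP meaning fewer viable cells.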 Type of test: functional, cell-based.
Test [14] is described as follows: HEK293 cell cytotoxicity, dose response, cytotoxicity control, luminescence, dry powder, set 12 (AID 743354). Type of test: functional, cell-based.
Test [15] is described as follows: HepG2 cell cytotoxicity, dose response, cytotoxicity control, luminescence, dry powder, set 9 (AID 743358). Type of test: functional, cell-based.
Test [16] is described as follows: HeLa 4N DNA content increase, dose response, cell-based, IC50 (AID 1117351). Type of test: functional.
Test [17] in a line: HeLa 2N DNA content increase, dose response, cell-based, IC50 (AID 1117349). Type of test: functional.
Test [18] is described as follows: cells. The settings on record: HEK293.
Test [19] can be described thus: HepG2 cell cytotoxicity, dose response, cytotoxicity control, ATP luminescence, cherry-pick, set 6 (AID 1053125). Type of test: functional, cell-based.
Test [20] concerns HeLa. The experiment in a line: HeLa cell cytotoxicity, dose response, cytotoxicity control for MITF activator project, CellTiter-Glo luminescence, cherry-pick samples (AID 540259). Type of test: functional, cell-based. The settings on record: Homo sapiens.
The target in test [21] is T2, Trace amine-associated receptor 1 (Homo sapiens, UniProt Q96RJ0).
T2 sequence (Q96RJ0 whole entry): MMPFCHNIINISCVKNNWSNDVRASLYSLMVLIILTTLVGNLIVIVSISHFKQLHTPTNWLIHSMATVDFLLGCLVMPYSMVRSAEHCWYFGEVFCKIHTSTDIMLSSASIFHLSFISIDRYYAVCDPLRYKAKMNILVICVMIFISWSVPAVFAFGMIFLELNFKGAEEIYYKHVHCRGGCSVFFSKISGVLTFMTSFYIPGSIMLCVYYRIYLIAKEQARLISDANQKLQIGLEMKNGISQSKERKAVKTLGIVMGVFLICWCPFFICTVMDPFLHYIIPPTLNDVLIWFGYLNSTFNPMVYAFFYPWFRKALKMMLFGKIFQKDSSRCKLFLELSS
The experiment in a line: Counterscreen for agonists of the human trace amine associated receptor 1 (hTAAR1): Fluorescence-based cell-based high throughput dose response assay to identify hTAAR1 agonist that also desensitize TAAR1 receptor response. Type of test: functional.

A short description of test [22]: cells. Type of test: functional, cell-based. The note with it: INS-1E.
The nature of test [23]: Dose-response inhibition of insulin secretion in a rat insulinoma line at 5 mM glucose (AID 1117331). Type of test: functional, cell-based. The settings on record: INS-1E.
The nature of test [24]: cells. Type of test: functional, cell-based.
For test [25], the target named is T2, Trace amine-associated receptor 1. The experiment in a line: Fluorescence-based cell-based high throughput dose response assay to identify agonists of the human trace amine associated receptor 1 (TAAR1). Type of test: functional.
Test [26] is described as follows: cells. Type of test: functional, cell-based. This is another data set of the same source.
For test [27], the target named is NAD-dependent protein deacylase sirtuin-5, mitochondrial (Homo sapiens, UniProt Q9NXA8). The experiment in a line: SIRT5 deacylase inhibitors, dose response, biochemical, fluorescence imaging, cherry-pick, set 6 (AID 720597).
Chain of NAD-dependent protein deacylase sirtuin-5, mitochondrial (Q9NXA8 whole entry): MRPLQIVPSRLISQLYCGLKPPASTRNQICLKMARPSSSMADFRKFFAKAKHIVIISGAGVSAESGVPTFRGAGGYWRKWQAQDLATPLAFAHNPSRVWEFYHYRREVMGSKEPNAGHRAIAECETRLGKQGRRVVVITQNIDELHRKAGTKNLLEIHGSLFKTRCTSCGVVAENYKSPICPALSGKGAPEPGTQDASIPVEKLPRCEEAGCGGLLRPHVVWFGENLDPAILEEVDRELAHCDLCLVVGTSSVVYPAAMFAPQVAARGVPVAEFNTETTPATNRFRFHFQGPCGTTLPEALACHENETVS

Structures can show the parent of a compound that is named as a salt. The source made the active and inactive calls. Some results are limits rather than exact numbers.

Take `CC(=O)c1ccc(N2CCN(C(=O)CCCn3c(=O)[nH]c4ccc(Br)cc4c3=O)CC2)cc1`: the IC50 was 1.48 µM (active) in test [1], 53.2 µM (inactive) in test [2], 0.579 µM (active) in test [3] and 25.9 µM (inactive) in test [4].

Take `CCCN1C[C@H](C)[C@@H](OC)CN(C)C(=O)c2cc(NC(=O)Nc3cccc(F)c3)ccc2OC[C@H]1C`: the AC50 is 2 µM (active) in test [5]; 2.47 µM (active) in [6]; 15.2 µM (active) in [7]; 42.2 µM (active) in test [8]; 0.469 µM (active) in test [9]; 1.61 µM (active) in test [10]. The AC50 in test [11] is 2.11 µM (active).

For the molecule `O=C1N[C@@H](c2ccccc2)COC(=O)[C@@H](Cc2ccc(F)cc2)C/C=C\C[C@H]1CC(=O)N(CCO)Cc1ccccc1`, the IC50 in test [12] was > 109 µM (inactive); in test [13] it was 37.8 µM (inactive).

In the case of `COC(=O)CCCCCCC(=O)N1CC[C@@H]2[C@@H](CO)N(C)c3ccc(-c4cccc(F)c4)cc3[C@@H]21`, the AC50 in test [14] is 46.1 µM (active); in [15], > 52 µM (inactive).

With `CCCCCCNC(=O)n1cc(F)c(=O)[nH]c1=O` [CARMOFUR], the IC50 in test [16] and in test [17] was > 10 µM (inactive) throughout.

Take `Nc1ccc(C#Cc2ccc3c(=O)c4ccccc4oc3c2)cc1`: the AC50 was > 52 µM (inactive) in test [18], > 52 µM (inactive) in [19] and 59.6 µM (active) in test [20].

Take `N[C@@H]1C[C@H]1c1ccccc1` [TRANYLCYPROMINE HYDROCHLORIDE]: the IC50 in test [21] is 2.1 µM (active); in [22] it was > 33.3 µM (inactive); in [23], > 33.3 µM (inactive); in test [24] it was > 29.9 µM (inactive). The EC50 in [25] is 0.611 µM (active); in [26], > 29.9 µM (inactive).

Turning to `COc1ccc(S(=O)(=O)Nc2ccc3c(c2)CC(=O)N([C@H](C)CO)C[C@@H](C)[C@@H](CN(C)Cc2ccc(C(F)(F)F)cc2)O3)cc1`, in [27], the AC50 was > 30 µM (inactive).

(Values after ChEMBL document CHEMBL1201862, “PubChem BioAssay data set” (2004).)
